The source of these data is patent US20240083892A1 (BISICHEM CO., LTD., priority 2021, published 2024).

Test [1] addresses T1, RIPK1 (Homo sapiens, UniProt Q13546).
T1 construct: endogenous in cells; host or cells: HT-29 (KCLB 30038)
T1 sequence (Q13546 1-671): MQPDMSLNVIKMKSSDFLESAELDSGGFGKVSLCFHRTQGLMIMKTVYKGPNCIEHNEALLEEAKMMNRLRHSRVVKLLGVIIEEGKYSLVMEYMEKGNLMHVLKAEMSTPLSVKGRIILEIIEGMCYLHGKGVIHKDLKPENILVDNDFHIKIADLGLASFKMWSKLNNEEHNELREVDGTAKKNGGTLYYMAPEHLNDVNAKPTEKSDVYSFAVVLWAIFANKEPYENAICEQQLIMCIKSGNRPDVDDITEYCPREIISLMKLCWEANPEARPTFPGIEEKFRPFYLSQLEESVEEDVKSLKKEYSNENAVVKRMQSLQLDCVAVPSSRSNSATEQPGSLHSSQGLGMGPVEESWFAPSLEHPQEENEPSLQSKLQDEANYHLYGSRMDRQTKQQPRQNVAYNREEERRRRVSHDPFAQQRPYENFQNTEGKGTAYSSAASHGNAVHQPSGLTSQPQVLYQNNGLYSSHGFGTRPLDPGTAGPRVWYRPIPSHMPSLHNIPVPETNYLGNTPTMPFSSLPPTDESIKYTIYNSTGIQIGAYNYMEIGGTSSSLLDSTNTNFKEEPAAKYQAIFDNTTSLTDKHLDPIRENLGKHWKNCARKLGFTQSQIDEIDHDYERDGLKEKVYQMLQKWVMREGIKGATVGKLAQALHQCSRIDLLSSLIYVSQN
Put plainly: Cell-based necroptosis assay for RIPK1 activity (cell viability by CCK-8). To be noted: HT-29 cells; Z-VAD-FMK 20 μM, human TNFα 10 ng/ml, SM-164 100 nM; 24 h; read-out: Cell-base RIPK1 activity: Necroptosis. The method, then:
(§1) Human colon carcinoma cell HT-29 (KCLB 30038), BV2 mouse microglial cell (cell was a kind gift from Dr. Nak-Yun Sung, Senior researcher at Korea Prime Pharmacy CO., LTD.) and human microglial cell HMC3 (ATCC® CRL-3304™). HT-29 cell was grown in Roswell Park Memorial Institute (RPMI) 1640, BV2 cell was grown in Dulbecco's Modified Eagle's Medium (DMEM) and HMC3 cell was grown in Minimum Essential Media Eagle (MEM) supplemented with 10% fetal bovine serum and 1% mixture of penicillin and streptomycin (Gibco). Cells were maintained at 37° C. in a humidified 5% CO2 atmosphere.
To measure the activity of RIPK1 inhibitor in necroptotic cells, HT-29 cells were treated by control DMSO, human TNFα (Peprotech, Rocky Hill, USA), SM-164 (Biovision, California, USA) and a pan-caspase inhibitor Z-VAD-FMK (Invivogen, San Diego, USA). Cells were pretreated with Z-VAD-FMK 20 μM. After 30 min, human TNFα 10 ng/ml, SM-164 100 nM and RIPK1 Inhibitor (0.0001, 0.001, 0.01, 0.02, 0.05, 0.1, 1, 10 uM) were treated for 24 h. Cell viability was measured by Cell Counting Kit 8 (CCK-8) (Dong-in, Seoul, Korea).

Test [2] concerns the target T1, RIPK1. Put plainly: Immunoblotting of TNFα induced phospho-RIPK1 (ser 166) levels. The format is cell-based. To be noted: HMC3 cells; Z-VAD-FMK, human TNFα 20 ng/ml, SM-164 100 nM; 7 h, serum free media; read-out: Cell-base RIPK1 activity: phspho-RIPK1 (Ser166). The method, then: as §1
Biological activity of the compounds of RIPK1 inhibitor was determined by measuring their ability to inhibitor TNFα induced phospho-RIPK1 (ser 166) levels, phospho-RIPK3 levels, phospho-MLKL levels in HMC3 cells. Cells were pretreated with Z-VAD-FMK […]. After 30 min, human TNFα 20 ng/ml, SM-164 100 nM and RIPK1 inhibitor (0.1, 1, 10 nM) were treated for 7 h under serum free media. Cells were lysed with cold lysis buffer containing 25 mM HEPES pH 7.6, […] NaCl, 1% NP40, 1% sodium deoxycholate, 0.1% SDS, and protease inhibitor mixture (Bimake, Houston, USA) using sonicators. The cells were centrifuged at 15,000 rpm, 4° C. for 5 min. After protein concentration of the lysates (supernatants) was quantified using BCA assay (Thermo Fisher Scientific, Waltham, USA), lysates were mixed with LDS sample buffer and heating at […] for 10 min. (Invitrogen, California, USA). […] The membranes are placed in an image analyzer (Imagequant, LAS 500, GE Healthcare), connected to a computer which allows the image generation (software Image reader LAS 500).
For orientation: In western blotting, separated proteins are transferred to a membrane and probed.

For `CN1C(=O)[C@@H](NC(=O)n2cc(Cc3cccc(F)c3)cn2)COc2ccc(O[C@H]3CC[C@H](O)CC3)cc21` [Example 35, 4-(3-fluorobenzyl)-N—((S)-7-(((1r,4S)-4-hydroxycyclohexyl)oxy)-5-methyl-4-oxo-2,3,4,5-tetrahydrobenzo[b][1,4]oxazepin-3-yl)-1H-pyrazole-1-carboxamide], the IC50 at RIPK1 [1] and at RIPK1 [2] was less than 0.01 µM throughout.

Consider `CN1C(=O)[C@@H](NC(=O)n2cc(Cc3cccc(F)c3)cn2)COc2ccc(OCC(=O)N3CCCCC3)cc21` [Example 36, (S)-4-(3-fluorobenzyl)-N-(5-methyl-4-oxo-7-(2-oxo-2-(piperidin-1-yl)ethoxy)-2,3,4,5-tetrahydrobenzo[b][1,4]oxazepin-3-yl)-1H-pyrazole-1-carboxamide], for which the IC50 on RIPK1 [1] and at RIPK1 [2] was less than 0.01 µM each time.

With `CN1C(=O)[C@@H](NC(=O)n2cc(Cc3cccc(F)c3)cn2)COc2ccc(OCC(=O)N3CCC(C)(C)CC3)cc21` [Example 37, (S)—N-(7-(2-(4,4-dimethylpiperidin-1-yl)-2-oxoethoxy)-5-methyl-4-oxo-2,3,4,5-tetrahydrobenzo[b][1,4]oxazepin-3-yl)-4-(3-fluorobenzyl)-1H-pyrazole-1-carboxamide], the IC50 at RIPK1 [1] and at RIPK1 [2] was less than 0.01 µM in each case.

Take `CN1C(=O)[C@@H](NC(=O)n2cc(Cc3cccc(F)c3)cn2)COc2ccc(OCC(=O)N3CCC(F)(F)CC3)cc21` [Example 38, (S)—N-(7-(2-(4,4-difluoropiperidin-1-yl)-2-oxoethoxy)-5-methyl-4-oxo-2,3,4,5-tetrahydrobenzo[b][1,4]oxazepin-3-yl)-4-(3-fluorobenzyl)-1H-pyrazole-1-carboxamide]: the IC50 at RIPK1 [1] and at RIPK1 [2] was less than 0.01 µM throughout.

For the molecule `CN1C(=O)[C@@H](NC(=O)n2cc(Cc3cccc(F)c3)cn2)COc2ccc(OCC(=O)N3CCOCC3)cc21` [Example 39, (S)-4-(3-fluorobenzyl)-N-(5-methyl-7-(2-morpholino-2-oxoethoxy)-4-oxo-2,3,4,5-tetrahydrobenzo[b][1,4]oxazepin-3-yl)-1H-pyrazole-1-carboxamide], the IC50 on RIPK1 [1] and at RIPK1 [2] was less than 0.01 µM throughout.

Consider `CN1C(=O)[C@@H](NC(=O)n2cc(Cc3cccc(F)c3)cn2)COc2ccc(OCC(=O)N3CCC(O)CC3)cc21` [Example 40, (S)-4-(3-fluorobenzyl)-N-(7-(2-(4-hydroxypiperidin-1-yl)-2-oxoethoxy)-5-methyl-4-oxo-2,3,4,5-tetrahydrobenzo[b][1,4]oxazepin-3-yl)-1H-pyrazole-1-carboxamide], for which the IC50 on RIPK1 [1] and on RIPK1 [2] was less than 0.01 µM throughout.

On to `CN1C(=O)[C@@H](NC(=O)n2cc(Cc3cccc(F)c3)cn2)COc2ccc(OCC(=O)N3CCC(C)(O)CC3)cc21` [Example 41, (S)-4-(3-fluorobenzyl)-N-(7-(2-(4-hydroxy-4-methylpiperidin-1-yl)-2-oxoethoxy)-5-methyl-4-oxo-2,3,4,5-tetrahydrobenzo[b][1,4]oxazepin-3-yl)-1H-pyrazole-1-carboxamide], for which the IC50 on RIPK1 [1] and on RIPK1 [2] was less than 0.01 µM in each case.

For `CN1C(=O)[C@@H](NC(=O)n2cc(Cc3cccc(F)c3)cn2)COc2ccc(OC(C)(C)C(=O)N3CCC(C)(O)CC3)cc21` [Example 42, (S)-4-(3-fluorobenzyl)-N-(7-((1-(4-hydroxy-4-methylpiperidin-1-yl)-2-methyl-1-oxopropan-2-yl)oxy)-5-methyl-4-oxo-2,3,4,5-tetrahydrobenzo[b][1,4]oxazepin-3-yl)-1H-pyrazole-1-carboxamide], the IC50 on RIPK1 [1] and on RIPK1 [2] was 0.01 to 0.05 µM in each case.

For the molecule `CN1C(=O)[C@@H](NC(=O)n2cc(Cc3cccc(F)c3)cn2)COc2ccc(OCC(=O)N3CCC(C(C)(C)O)CC3)cc21` [Example 43, (S)-4-(3-fluorobenzyl)-N-(7-(2-(4-(2-hydroxypropan-2-yl)piperidin-1-yl)-2-oxoethoxy)-5-methyl-4-oxo-2,3,4,5-tetrahydrobenzo[b][1,4]oxazepin-3-yl)-1H-pyrazole-1-carboxamide], the IC50 on RIPK1 [1] and at RIPK1 [2] was less than 0.01 µM throughout.

Regarding `CN1C(=O)[C@@H](NC(=O)n2cc(Cc3cccc(F)c3)cn2)COc2ccc(OCC(=O)N3CCCC3)cc21` [Example 44, (S)-4-(3-fluorobenzyl)-N-(5-methyl-4-oxo-7-(2-oxo-2-(pyrrolidin-1-yl)ethoxy)-2,3,4,5-tetrahydrobenzo[b][1,4]oxazepin-3-yl)-1H-pyrazole-1-carboxamide], the IC50 at RIPK1 [1] and on RIPK1 [2] was less than 0.01 µM each time.

As for `CN1C(=O)[C@@H](NC(=O)n2cc(Cc3cccc(F)c3)cn2)COc2ccc(OCC(=O)N3CCC(F)(F)C3)cc21` [Example 45, (S)—N-(7-(2-(3,3-difluoropyrrolidin-1-yl)-2-oxoethoxy)-5-methyl-4-oxo-2,3,4,5-tetrahydrobenzo[b][1,4]oxazepin-3-yl)-4-(3-fluorobenzyl)-1H-pyrazole-1-carboxamide], the IC50 on RIPK1 [1] and on RIPK1 [2] was less than 0.01 µM throughout.

As for `CN1C(=O)[C@@H](NC(=O)n2cc(Cc3cccc(F)c3)cn2)COc2ccc(OCC(=O)N3CC[C@H](O)C3)cc21` [Example 46, 4-(3-fluorobenzyl)-N—((S)-7-(2-((S)-3-hydroxypyrrolidin-1-yl)-2-oxoethoxy)-5-methyl-4-oxo-2,3,4,5-tetrahydrobenzo[b][1,4]oxazepin-3-yl)-1H-pyrazole-1-carboxamide], the IC50 on RIPK1 [1] was 0.01 to 0.05 µM; at RIPK1 [2], less than 0.01 µM.

As for `CN1C(=O)[C@@H](NC(=O)n2cc(Cc3cccc(F)c3)cn2)COc2ccc(OCC(=O)N3CC[C@@H](O)C3)cc21` [Example 47, 4-(3-fluorobenzyl)-N—((S)-7-(2-((R)-3-hydroxypyrrolidin-1-yl)-2-oxoethoxy)-5-methyl-4-oxo-2,3,4,5-tetrahydrobenzo[b][1,4]oxazepin-3-yl)-1H-pyrazole-1-carboxamide], the IC50 on RIPK1 [1] and on RIPK1 [2] was less than 0.01 µM each time.

As for `CN1C(=O)[C@@H](NC(=O)n2cc(Cc3cccc(F)c3)cn2)COc2ccc(OCC(=O)N3CCC(C(C)(C)O)C3)cc21` (stereo partly drawn) [Example 48, 4-(3-fluorobenzyl)-N-((3S)-7-(2-(3-(2-hydroxypropan-2-yl)pyrrolidin-1-yl)-2-oxoethoxy)-5-methyl-4-oxo-2,3,4,5-tetrahydrobenzo[b][1,4]oxazepin-3-yl)-1H-pyrazole-1-carboxamide], the IC50 at RIPK1 [1] and on RIPK1 [2] was less than 0.01 µM throughout.

`CN1C(=O)[C@@H](NC(=O)n2cc(Cc3cccc(F)c3)cn2)COc2ccc(OCC(=O)N3CC(C)(O)C3)cc21` [Example 49, (S)-4-(3-fluorobenzyl)-N-(7-(2-(3-hydroxy-3-methylazetidin-1-yl)-2-oxoethoxy)-5-methyl-4-oxo-2,3,4,5-tetrahydrobenzo[b][1,4]oxazepin-3-yl)-1H-pyrazole-1-carboxamide]: the IC50 on RIPK1 [1] and on RIPK1 [2] was less than 0.01 µM each time.
